This is an account of results in ChEMBL document CHEMBL4699440, “Comprehensive review on the anti-bacterial activity of 1,2,3-triazole hybrids” (Eur J Med Chem, 2019).

The term MIC denotes the lowest concentration found to suppress growth. Lower therefore signals greater potency. What is called IC50 is the concentration that inhibits the measured activity by half. A higher IC50 goes with lower potency.

Values after ≈ are worked out from the molar mass of the structure shown.

The subject of experiment [1] is Staphylococcus aureus. As to the kind of experiment: Antibacterial activity against Staphylococcus aureus CIP 6525 after overnight incubation by CLSI M7-A9 based method. Format: functional.
Experiment [2] has as its system Escherichia coli. As to the kind of experiment: Antibacterial activity against Escherichia coli JM109 after overnight incubation by CLSI M7-A9 based method. Format: functional.
The subject of experiment [3] is Escherichia coli. The experiment in a line: Antibacterial activity against Escherichia coli ATCC 25922 after overnight incubation by CLSI M7-A9 based method. The class given is functional.
Experiment [4] deals with Enterococcus faecalis. The experiment in a line: Antibacterial activity against Enterococcus faecalis ATCC 29212 after overnight incubation by CLSI M7-A9 based method. The class given is functional.
Experiment [5] relates to Pseudomonas aeruginosa. The experiment in a line: Antibacterial activity against Pseudomonas aeruginosa 12 incubated for 20 hrs by agar dilution method. Format: functional. (In agar dilution the substance is mixed into plates at graded concentrations.)
The test system of experiment [6] is Staphylococcus aureus. As to the kind of experiment: Antibacterial activity against Staphylococcus aureus 209P JC1 incubated for 20 hrs by agar dilution method. The class given is functional.
Experiment [7] relates to Escherichia coli. As to the kind of experiment: Antibacterial activity against Escherichia coli NIHJ JC2 incubated for 20 hrs by agar dilution method. Format: functional.
The subject of experiment [8] is Escherichia coli. The experiment in a line: Antibacterial activity against Escherichia coli ATCC 25922 incubated for 24 hrs by microdilution method. The class given is functional. On the technique in general: Broth dilution looks for growth in wells or tubes with falling amounts of substance.
A further experiment relates to Bacillus cereus. As to the kind of experiment: Antibacterial activity against Bacillus cereus ATCC 10876 incubated for 24 hrs by microdilution method. Format: functional.
Experiment [9] deals with Pseudomonas aeruginosa. The experiment in a line: Antibacterial activity against Pseudomonas aeruginosa ATCC 27853 incubated for 24 hrs by microdilution method. Format: functional.
In the next experiment the test system is Proteus mirabilis. As to the kind of experiment: Antibacterial activity against Proteus mirabilis ATCC 35659 incubated for 24 hrs by microdilution method. Format: functional.
For another experiment, the system named is Candida albicans. The experiment in a line: Antifungal activity against Candida albicans ATCC 50193 incubated for 24 hrs by microdilution method. Format: functional.
The test system of experiment [10] is Enterococcus faecalis. As to the kind of experiment: Antibacterial activity against Enterococcus faecalis ATCC 29212 incubated for 24 hrs by microdilution method. The class given is functional.
In a further experiment the test system is Aspergillus brasiliensis. As to the kind of experiment: Antifungal activity against Aspergillus brasiliensis ATCC 16404 incubated for 24 hrs by microdilution method. The class given is functional.
Experiment [11] concerns Staphylococcus aureus. As to the kind of experiment: Antibacterial activity against Staphylococcus aureus ATCC 25923 incubated for 24 hrs by microdilution method. Format: functional.
Experiment [12] relates to Klebsiella pneumoniae. The experiment in a line: Antibacterial activity against Klebsiella pneumoniae ATCC 700603 incubated overnight by broth dilution technique. The class given is functional, organism-based.
Experiment [13] has as its system Pseudomonas aeruginosa. As to the kind of experiment: Antibacterial activity against Pseudomonas aeruginosa MTCC 2453 incubated overnight by broth dilution technique. Format: functional, organism-based.
The subject of a further experiment is Salmonella enterica. As to the kind of experiment: Antibacterial activity against Salmonella enterica MTCC 3224 incubated overnight by broth dilution technique. The class given is functional, organism-based.
Experiment [14] relates to Enterococcus faecalis. The experiment in a line: Antibacterial activity against Enterococcus faecalis MTCC 439 incubated overnight by broth dilution technique. The class given is functional, organism-based.
Experiment [15] relates to Escherichia coli. The experiment in a line: Antibacterial activity against Escherichia coli ATCC 25922 incubated overnight by broth dilution technique. Format: functional, organism-based.
For another experiment, the system named is Streptococcus pneumoniae. The experiment in a line: Antibacterial activity against Streptococcus pneumoniae RCMB 010010 by broth dilution method. The class given is functional.
For a further experiment, the system named is Bacillus subtilis. The experiment in a line: Antibacterial activity against Bacillus subtilis RCMB 010067 by broth dilution method. The class given is functional.
The subject of experiment [16] is Escherichia coli. As to the kind of experiment: Antibacterial activity against Escherichia coli RCMB 010052 by broth dilution method. Format: functional.
Experiment [17] has as its system Klebsiella pneumoniae. The experiment in a line: Antibacterial activity against Klebsiella pneumonia RCMB 010058 by broth dilution method. Format: functional.
Experiment [18] concerns Staphylococcus aureus. The experiment in a line: Antibacterial activity against Staphylococcus aureus RCMB 010025 by broth dilution method. Format: functional.
Experiment [19] has as its system Pseudomonas aeruginosa. As to the kind of experiment: Antibacterial activity against Pseudomonas aeruginosa RCMB 010043 by broth dilution method. Format: functional.

For `C[C@H](c1ccccc1)N(CC(N)=O)C(=O)CN(C(=O)CN(Cc1cn(CC2CCCCC2)n[n+]1C)C(=O)CN(C(=O)CN(C(=O)CN(Cc1cn(CC2CCCCC2)n[n+]1C)C(=O)CN(C(=O)CN(C(=O)CNCc1cn(CC2CCCCC2)n[n+]1C)[C@H](C)c1ccccc1)[C@H](C)c1ccccc1)[C@H](C)c1ccccc1)[C@H](C)c1ccccc1)[C@H](C)c1ccccc1`, the minimal inhibitory concentration (MIC) against Staphylococcus aureus [1], against Escherichia coli [2], in the experiment on Escherichia coli [3] and with Enterococcus faecalis [4] was over 1.6 µg/mL in each case.

On to `CC1CCN(c2cc3c(c(=O)c(C(=O)O)cn3C3CC3)c3[nH]nnc23)CC1`, for which the minimum inhibitory concentration (MIC) against Pseudomonas aeruginosa [5], in the experiment on Staphylococcus aureus [6] and with Escherichia coli [7] was 0.05 µg/mL (≈ 0.136 µM) throughout.

As to `NCC1CCN(c2c(F)c3c(c(=O)c(C(=O)O)cn3C3CC3)c3[nH]nnc23)C1` (stereo not given), the MIC in the experiment on Pseudomonas aeruginosa [5], against Staphylococcus aureus [6] and in the experiment with Escherichia coli [7] was 0.05 µg/mL (≈ 0.129 µM) throughout.

Regarding `CC1CCN(c2c(F)c3c(c(=O)c(C(=O)O)cn3C3CC3)c3[nH]nnc23)CC1`, the MIC with Pseudomonas aeruginosa [5], against Staphylococcus aureus [6] and against Escherichia coli [7] was 0.05 µg/mL (≈ 0.13 µM) each time.

Take `CCCCCCCCCCCCCCn1nnc(-c2n[nH]c(=S)n2N)c1-c1n[nH]c(=S)n1N`: the MIC in the experiment with Escherichia coli [8], in the experiment on Bacillus cereus, in the experiment on Pseudomonas aeruginosa [9], against Proteus mirabilis, with Candida albicans and with Enterococcus faecalis [10] was 1 µg/mL (≈ 2.03 µM) throughout. Moreover, the MIC against Aspergillus brasiliensis and in the experiment with Staphylococcus aureus [11] was 1 µg/mL (≈ 2.03 µM) throughout.

Consider `O=C(O)c1cn(C2CC2)c2c(F)c(N3CCCCC3)c3nn[nH]c3c2c1=O`, for which the minimal inhibitory concentration (MIC) with Pseudomonas aeruginosa [5], against Staphylococcus aureus [6] and in the experiment on Escherichia coli [7] was 0.05 µg/mL (≈ 0.135 µM) throughout.

For `COc1ccc(-n2cc(COc3cccc4cccnc34)nn2)cc1`, the IC50 in the experiment with Klebsiella pneumoniae [12], in the experiment on Pseudomonas aeruginosa [13], in the experiment with Salmonella enterica, with Enterococcus faecalis [14] and with Escherichia coli [15] was 164 µg/mL (≈ 495 µM) each time.

In the case of `OCC(O)CSc1nnc(-c2nnn(-c3ccccc3Cl)c2-c2nnc(SCC(O)CO)o2)o1` (stereo not given), the MIC with Streptococcus pneumoniae, in the experiment with Bacillus subtilis, against Escherichia coli [16], against Klebsiella pneumoniae [17], with Staphylococcus aureus [18] and against Pseudomonas aeruginosa [19] was 4 µg/mL (≈ 7.58 µM) throughout.

Consider `CCCCCCCCCCn1nnc(-c2n[nH]c(=S)n2N)c1-c1n[nH]c(=S)n1N`, for which the minimum inhibitory concentration (MIC) with Escherichia coli [8], with Bacillus cereus, with Pseudomonas aeruginosa [9], in the experiment with Proteus mirabilis, against Candida albicans and with Enterococcus faecalis [10] was 1 µg/mL (≈ 2.29 µM) in each case. The minimal inhibitory concentration (MIC) against Aspergillus brasiliensis and in the experiment on Staphylococcus aureus [11] was 1 µg/mL (≈ 2.29 µM) each time.

For the compound `C[C@@H]1CN(c2c(F)c(N)c3c(=O)c(C(=O)O)cn(C4CC4)c3c2F)C[C@H](C)N1` [SPARFLOXACIN], the minimal inhibitory concentration (MIC) with Pseudomonas aeruginosa [5], against Staphylococcus aureus [6] and in the experiment on Escherichia coli [7] was 0.0125 µg/mL (≈ 0.0319 µM) throughout.

`NC1CCN(c2c(F)c3c(c(=O)c(C(=O)O)cn3C3CC3)c3[nH]nnc23)C1` (stereo not given): the MIC in the experiment with Pseudomonas aeruginosa [5], in the experiment with Staphylococcus aureus [6] and in the experiment on Escherichia coli [7] was 0.05 µg/mL (≈ 0.134 µM) in each case.

Regarding `O=C(O)c1ccc(-n2cc(COc3cccc4cccnc34)nn2)cc1`, the IC50 with Klebsiella pneumoniae [12], in the experiment on Pseudomonas aeruginosa [13], with Salmonella enterica, in the experiment with Enterococcus faecalis [14] and in the experiment with Escherichia coli [15] was 106 µg/mL (≈ 306 µM) in each case.

Turning to `CCOCCSc1nnc(-c2nnn(-c3ccccc3Cl)c2-c2nnc(SCCOCC)o2)o1`, the MIC against Streptococcus pneumoniae, against Bacillus subtilis, in the experiment with Escherichia coli [16], in the experiment with Klebsiella pneumoniae [17], in the experiment with Staphylococcus aureus [18] and against Pseudomonas aeruginosa [19] was 31.2 µg/mL (≈ 59.6 µM) each time.
